# Values of other authors, collected in patent US20100291025A1, “INDAZOLE INHIBITORS OF TYROSINE KINASE” (AUSPEX PHARMACEUTICALS, INC., priority 2009, published 2010).
# Settings: in vivo
structure (smiles),measurement,value
"Cc1ccc(Nc2nccc(N(C)c3ccc4c(C)n(C)nc4c3)n2)cc1S(N)(=O)=O [Pazopanib, 5-[[4-[(2,3-Dimethyl-2H-indazol-6-yl)(methyl)amino]pyrimidin-2-yl]amino]-2-methylbenzenesulfonamide]",adverse effects associated with administration,"nausea, diarrhea, anorexia, hypertension, fatigue, hair depigmentation, and vomiting"
